Source: patent publication US8138304B2, “Neural regeneration peptides and formulations thereof” (Neuren Pharmaceuticals Limited, priority 2005, dated 2012)
Where no end group is shown, it is not given here.

Columns and labels:
[1] = system: primary human trophoblasts; assay: Trophoblast proliferation assay (BrdU incorporation); type: cell-based; details: EGF 0.8×10^−9 M; 24 hrs; BrdU
Method: Cell proliferation was determined by BrdU incorporation to examine the effects of NRP-5RG D6A on the proliferation of trophoblasts. EGF (0.8×10^−9 M) was used as a positive control, since studies have previously shown it plays a role in enhancing trophoblast proliferation (Maruo et al., 1992).
Initially cells were treated with NRP-5RG D6A (SEQ ID NO: 1), EGF and BrdU (0.05 μM) for 72 hrs. After the first 24 hrs, an 80% media change was carried out since BrdU is toxic over long incubation periods. Following 72 hrs of incubation, the reaction was stopped by fixation in 4% PFA. However, with this experimental design, most trophoblasts would form syncytia by the end of the 72 hrs, hindering accurate examination of the proliferative effect of NRP-5RG D6A on trophoblasts. […] This allowed analysis of proliferation of mononuclear trophoblasts.
Cell proliferation was evaluated over 24 hrs after seeding 1.3×10^5 cells/cm^2 in culture media (1% serum) treated with 0.05 μM BrdU, NRP-5RG D6A and EGF (FIG. 13).

JAr cells = assay: TNF-alpha-induced cytotoxicity in immortalized trophoblast cell line; type: cell-based, human; details: EGF 5 ng/ml
Method: Choriocarcinoma cells (Jeg-3, BeWo and Jar; ATCC) were cultured under similar conditions in DMEM/F-12 cell culture medium in 75 cm2 flasks with filter tops (Raylab). Cells were allowed to adhere and grow in an incubator equilibrated in 95%/5% air/CO2 to approximately 70% confluence, before being split every 2 to 3 days by addition of 2 ml of 1× concentrated trypsin-EDTA. After a centrifugation step for 5 min at 1100 rpm, cells were resuspended in 15 ml of fresh DMEM/F-12 in sterile tissue flasks and placed back in the incubator.
In this study, we plated 50,000 JAr cells per well. JAr cells are an immortalized line of cells derived from a human choriocarcinoma cells. Wells were pre-incubated with NRP-5RG D6A (SEQ ID NO: 1) at the concentrations indicated in FIG. 12, or epidermal growth factor (EGF; 5 ng/ml) for 2 hours. Subsequently, cells were exposed to the cultures for 48 hours to TNF-alpha (5 ng/ml) and interferon-gamma (5 ng/ml) to induce stress.

cerebellar cells = assay: Cerebellar microexplant proliferation assay (BrdU); type: cell-based, Wistar rat; details: p<0.01; SEQ ID NO: 1 at 1 pM, SEQ ID NO: 2 at 100 pM
Method: (§1) Laminated cerebellar cortices of the two hemispheres were explanted from a P3, P4, P7 or P8 Wistar rat, cut into small pieces in GBSS with 0.65% D(+)glucose solution, and triturated by a 0.4 mm gauge needle and subsequently pressed through a 125 μm pore size sieve. The obtained microexplants were centrifuged (60×g) 2 times for a medium exchange into serum-free BSA-supplemented START V-medium (Biochrom). Finally, the microexplants were reconstituted in 500 μl STARTV-medium. For culturing, 38 μl of the cell suspension was incubated for 1 hour on a poly-D-lysine-coated cover slip in a 35 mm Petri dish under an atmosphere comprising 5% CO2 in air and 100% humidity at 34° C. Subsequently, the injuring toxins (as described below), NRPs and 1 ml of STARTV-medium were added, and the cultures were evaluated after 2-3 days of culture.
Toxicological and drug administration experiments were designed such that 1/100 parts of toxin and neuroprotective drug were administered simultaneously to the freshly prepared cerebellar microexplants. Glutamate was prepared as a 50 mM stock solution in MilliQ water while 50 mM 3-nitropropionic acid was pH-adjusted (pH 6.8-7.2) in MilliQ water. The concentrations of the oxidative stress inducing toxin, 3-nitropropionic acid (3-NP), and the excitotoxin, glutamate, in the assay were 0.5 mM each. Lyophilized peptides were reconstituted in PBS or 100 μg/ml human transferrin as a 10 μM stock solution. Subsequently, serial dilutions were made. Cerebellar microexplants were cultivated for 48-72 hours at 34° C., 5% CO2 in air and 100% humidity before they were fixed by increasing amounts of paraformaldehyde (0.4%, 1.2%, 3% and 4%—each treatment 2-3 min).
Using the toxins described above, cerebellar explants were exposed for 24 hours, at the beginning of culturing to dilutions of NRP (survival assay) or NRP and 0.1 μM BrdU (proliferation assay). Subsequently, 80% of the medium was changed without addition of new toxins and NRPs. […]
For statistical analysis of proliferation BrdU-positive nuclei were counted. Statistical significance was measured by Student's t-test.

[2] = system: peripheral neuropathy induced by pyridoxine; assay: Pyridoxine-induced peripheral neuropathy: precision beam walk test; type: in vivo, Sprague Dawley rats; details: for beam walk score: 7-step walk total score
Method: (§2) Adult male Sprague Dawley P50 rats were divided into the vehicle (n=9) and NRP-treated (n=10) groups. The rats were killed with an overdose of sodium pentobarbiturate on the 24 day from the first administration of pyridoxine.
(§3) From day 1, all rats were injected intraperitoneally (IP), twice daily, with 350 mg/kg pyridoxine for 8 consecutive days. Pyridoxine (Sigma) solution for injections was made using the following proportions: 95 mg of pyridoxine and 41 mg sodium bicarbonate in 1 ml of water.
(§4) On days 1 to 10 the vehicle group (n=10) received one daily IP-injection of 24 mM sucrose and the rats in the NRP-treated group (n=10) received 4 μg/kg of NRP-5 segment GG analogue D4A (GRRAAPGRAGG-NH2; SEQ ID NO:2) diluted in 24 mM sucrose. Lyophilised NRP was stored in the presence of sucrose or alternatively in trehalose at room temperature. For every intraperitoneal (i.p.) injection, NRP-5 segment GG analogue D4A was reconstituted to 100 μM peptide concentration containing 0.5M sucrose/trehalose, further diluted with PBS to the actual working solution of 5 μg/ml NRP-5 segment GG analogue D4A (containing 24 mM sucrose). A rat with a body weight of 250 g was injected with 200 μl of the working solution.
The precision beam walk test was used to assess the animals' precise coordinated movement on days 13, 17 and 24. Briefly, animals were habituated once daily for 7 days before start of pyridoxine treatment on a 1.5 m long beam (with two longitudinal stripes indicating the median of the beam). On day 0 (one day before pyridoxine/NRP treatment) a baseline of motor behaviour on the beam was videotaped. […] All scores were added for the 7-step walk to receive a total score for one tested animal at a given time point. If the tested rat could only stand on the beam but was unable to not walk it was given the score of 30, and if it was unable to stand on the beam, it was scored as 32.

[3] = system: peripheral neuropathy induced by pyridoxine; assay: Pyridoxine-induced peripheral neuropathy: motor impairment score; type: in vivo, Sprague Dawley rats
Method: as §2, §3
On days 1 to 10 the vehicle group (n=10) received one daily IP-injection of 24 mM sucrose and the rats in the NRP-treated group (n=10) received 4 μg/kg of NRP-5 segment GG analogue D4A (GRRAAPGRAGG-NH2; SEQ ID NO:2) diluted in 24 mM sucrose. Lyophilised NRP was stored in the presence of sucrose or alternatively in trehalose at room temperature. […]
Overall motor impairment was analysed by assessing the gait of each rat: 1) on a flat surface and 2) its ability to walk across a wooden beam. […]
If the animal walked with no difficulty whatsoever, it was scored as a “0.” If there appeared to be problems in its gait, it was placed on a raised wooden beam. […]

[4] = Pyridoxine-induced peripheral neuropathy: weight loss; type: in vivo, Sprague Dawley rats; details: 4 μg/kg IP daily days 1 to 10
Method: as §2, §3, §4
Animals are weighed daily during the experimental timeframe of 24 days. According to the study protocol, animals showing weight loss of more than 15% body weight were immediately killed. One of the control animals was sacrificed on day 4 of the pyridoxine treatment (control n=9).

[5] = system: peripheral neuropathy induced by pyridoxine; assay: Pyridoxine-induced peripheral neuropathy: hind limb adduction test; type: in vivo, Sprague Dawley rats; details: end of the study
Method: as §2, §3
as §4, with “A rat with a body weight of 250 g was injected with 200 μl of the working solution.” left out
Overall motor movement impairment was analysed by assessing the ability of each rat to adduct (i.e. keep its limbs close to the body) its hind limbs. […] These were scored as “0”. Rats that drew their hind limbs back after a slight delay were scored as “1”. […]

[6] = system: experimental autoimmune encephalomyelitis (EAE) induced by MOG; assay: EAE model of multiple sclerosis, prophylactic treatment; type: in vivo, mice, strain C57Bl/6J; details: for incidence of disease / mortality / average clinical score: 14 days from day 5
cerebellar microexplants = assay: Cerebellar microexplant survival assay (3-NP/glutamate injury); type: cell-based, Wistar rat; details: in this particular assay; concentration not given
Method: as §1
Toxicological and drug administration experiments were designed such that 1/100 parts of toxin and neuroprotective drug were administered simultaneously to the freshly prepared cerebellar microexplants. […]
For statistical analysis of survival, four fields (each field having an area of 0.65 mm^2) of each fixed cerebellar culture with the highest cell densities were chosen, and cells displaying neurite outgrowth were counted (survival assay).

[7] = system: experimental autoimmune encephalomyelitis (EAE) induced by MOG; assay: EAE model of multiple sclerosis, therapeutic treatment; type: in vivo, mice, strain C57Bl/6J; details: score 0-6
[8] = 0.2 μg peptide/day (8.33 μg/kg) i.p.

## EGF: epidermal growth factor; proliferation-inducing peptide used as internal/positive control [reference compound]
[1]
  increase in trophoblast proliferation compared to control: 116.7±44%
JAr cells
  trophoblast proliferation in the absence of TNF-alpha injury: stimulated trophoblast proliferation
JAr cells; 2 hours pre-incubation
  rescue of JAr cells from TNF-alpha-induced cytotoxicity: weak effect

## GRRAAPGRAGG-NH2 (listed as Homo sapiens) [SEQ ID NO: 2, 11-mer analogue of NRP-5]
Cerebellar cells
  proliferation compared against injured cells without NRP: highly proliferation-inducing
[2]; day 13
  rats that performed the 7-step walk: 6 out of 10
  beam walk score: 23.50 ± 2.46
[2]; day 17
  animals that could perform the walk: all but one
  beam walk score: 21.70 ± 1.43
[2]; day 24
  beam walk, difference between vehicle and NRP-treated group: no longer a significant difference
[3]; day 13 (peak of disease), score 0-3, 4 μg/kg IP daily days 1 to 10
  motor impairment score: 0.60+0.52
[3]; day 24
  motor impairment outcome: recovered
[4]
  initial weight loss: 3.7%
[4]; day 8 until day 21
  body weight versus vehicle-treated group: significantly higher
[4]; day 10
  body weight at the peak of weight loss: 96.3+1.2 % of day 1 weight
[5]
  animals with no sign of hind limb adduction after manual manipulation: 9 out of 10
[5]; score 0-3, 4 μg/kg IP daily days 1 to 10
  hind limb adduction score: 0.10+0.31

## GTPGRAEAGGQVSPCLAASCSQAYG (listed as Homo sapiens) [SEQ ID NO: 4, 25-mer NRP-4 GG]
[6]; 1 ug peptide/day i.p.
  incidence of disease: 8 out of 10
  mortality: 0
[6]; day 27, 1 ug peptide/day i.p.
  average clinical score: 1.0
[6]; from 12 days onwards until day 27, 1 ug peptide/day i.p.
  disease profile compared to saline control: significant attenuation of the disease profile

## IGF-1: Neuroprotectant named as comparator in the cerebellar microexplant assay [reference compound]
Cerebellar microexplants
  rescue values, protection: approximately 20%

## REGRRDAPGRAGG (listed as Homo sapiens) [SEQ ID NO: 3, 13-mer NRP-5 segment RG]
[7]; 0.1 μg peptide/animal (4.16 μg/kg) i.p. daily for 14 days from peak of disease
  mean clinical score after treatment: 1.16
[7]; peak of the disease (day 17 after MOG-immunization)
  mean clinical score before treatment: 2.61

## SEPEARRAPGRKGGVVCASLAADW (listed as Mus musculus) [SEQ ID NO: 5, 24-mer NRP-7 SW]
[6]; [8]
  average clinical score: less than 0.5
  incidence of disease: 7 out of 9
  mortality: No animals died
[6]; from day 12 onwards, 0.2 μg peptide/day i.p.
  clinical score compared to saline control: significant attenuation in clinical score
